Values after ≈ are worked out from the molar mass of the structure shown.
Tests used:
Type in all cases: cell-based
[1] = tested on: Micrococcus luteus ATCC 9341; assay: Antibacterial activity, agar-dilution MIC, organism No. 25; settings: Micrococcus luteus, ATCC9341; Organism No. 25, bouillon-agar; read-out: Minimum Inhibitory Concentration
From the text: (§1) Agar-dilution method was used for determination of the antibacterial activity and antifungal activity while using bouillon-agar culture medium, and the minimum inhibitory concentration of the specimen was expressed by μg/ml of the culture medium.

[2] = tested on: Streptococcus faecium IFO 3826; assay: Antibacterial activity, agar-dilution MIC, organism No. 27; settings: Enterococcus faecium, IFO3826; Organism No. 27, bouillon-agar; read-out: Minimum Inhibitory Concentration
From the text: as §1

[3] = tested on: Salmonella enteritidis G 14; assay: Antibacterial activity, agar-dilution MIC, organism No. 12; settings: Salmonella enterica, ENTERITIDIS; Organism No. 12, bouillon-agar; read-out: Minimum Inhibitory Concentration
From the text: as §1

[4] = tested on: Aspergillus niger IFO 6342; assay: Antifungal activity, agar-dilution MIC, organism No. 30; settings: Aspergillus niger, IFO6342; Organism No. 30, bouillon-agar; read-out: Minimum Inhibitory Concentration
From the text: as §1

Proteus vulgaris OX-19 = assay: Antibacterial activity, agar-dilution MIC, organism No. 20; settings: Proteus vulgaris, OX19; Organism No. 20, bouillon-agar; read-out: Minimum Inhibitory Concentration
From the text: as §1

Enterobacter cloacae 963 = assay: Antibacterial activity, agar-dilution MIC, organism No. 24; settings: Enterobacter cloacae, 963; Organism No. 24, bouillon-agar; read-out: Minimum Inhibitory Concentration
From the text: as §1

[5] = tested on: Staphylococcus aureus Terajima; assay: Antibacterial activity, agar-dilution MIC, organism No. 2; settings: Staphylococcus aureus; Organism No. 2, bouillon-agar; read-out: Minimum Inhibitory Concentration
From the text: as §1

Proteus vulgaris HX-19 = assay: Antibacterial activity, agar-dilution MIC, organism No. 21; settings: Proteus vulgaris, HX19; Organism No. 21, bouillon-agar; read-out: Minimum Inhibitory Concentration
From the text: as §1

[6] = tested on: Mycoplasma pneumoniae IID817; assay: Antimycoplasmal activity, MIC by phenol red colour change, organism No. 28; settings: Mycoplasma, IID817; Organism No. 28, PPLO broth + 1% glucose, 37° C.; read-out: Minimum Inhibitory Concentration (MIC)
Procedure: Mycoplasma pneumoniae IID817 was used as the test microorganism in a culture medium prepared by adding 1% of glucose to "PPLO broth (manufactured by Difco Co.) liquid culture medium" at 37° C. with phenol red as an indicator, thereby culturing the test microorganism.

[7] = tested on: Staphylococcus aureus MS 353; assay: Antibacterial activity, agar-dilution MIC, organism No. 3; settings: Staphylococcus aureus, MS353; Organism No. 3, bouillon-agar; read-out: Minimum Inhibitory Concentration
From the text: as §1

[8] = tested on: Salmonella paratyphi-A 1015; assay: Antibacterial activity, agar-dilution MIC, organism No. 10; settings: Salmonella enterica, PARATYPHI, read-out: Minimum Inhibitory Concentration
From the text: as §1

[9] = tested on: Enterobacter aerogenes ATCC 13048; assay: Antibacterial activity, agar-dilution MIC, organism No. 23; settings: Klebsiella aerogenes, ATCC13048; Organism No. 23, bouillon-agar; read-out: Minimum Inhibitory Concentration
From the text: as §1

[10] = tested on: Pseudomonas aeruginosa IFO 3445; assay: Antibacterial activity, agar-dilution MIC, organism No. 15; settings: Pseudomonas aeruginosa, IFO3445; Organism No. 15, bouillon-agar; read-out: Minimum Inhibitory Concentration
From the text: as §1

[11] = tested on: Proteus rettgeri IFO 3850; assay: Antibacterial activity, agar-dilution MIC, organism No. 22; settings: Providencia rettgeri, IFO3850; Organism No. 22, bouillon-agar; read-out: Minimum Inhibitory Concentration
From the text: as §1

[12] = tested on: Proteus morganii IFO 3848; assay: Antibacterial activity, agar-dilution MIC, organism No. 18; settings: Morganella morganii, IFO3848; Organism No. 18, bouillon-agar; read-out: Minimum Inhibitory Concentration
From the text: as §1

[13] = tested on: Klebsiella pneumoniae PCI-602; assay: Antibacterial activity, agar-dilution MIC, organism No. 7; settings: Klebsiella pneumoniae, PCI602; Organism No. 7, bouillon-agar; read-out: Minimum Inhibitory Concentration
From the text: as §1

[14] = tested on: Staphylococcus aureus FDA 209PJc-1; assay: Antibacterial activity, agar-dilution MIC, organism No. 1; settings: Staphylococcus aureus, FDA209PJC1; Organism No. 1, bouillon-agar; read-out: Minimum Inhibitory Concentration
From the text: as §1

[15] = tested on: Proteus mirabilis IFO 3849; assay: Antibacterial activity, agar-dilution MIC, organism No. 19; settings: Proteus mirabilis, IFO3849; Organism No. 19, bouillon-agar; read-out: Minimum Inhibitory Concentration
From the text: as §1

[16] = tested on: Candida albicans IAM 4905; assay: Antifungal activity, agar-dilution MIC, organism No. 29; settings: Candida albicans, IAM4905; Organism No. 29, bouillon-agar; read-out: Minimum Inhibitory Concentration
From the text: as §1

[17] = tested on: Bacillus subtilis ATCC 6633; assay: Antibacterial activity, agar-dilution MIC, organism No. 14; settings: Bacillus subtilis, ATCC6633; Organism No. 14, bouillon-agar; read-out: Minimum Inhibitory Concentration
From the text: as §1

[18] = tested on: Pseudomonas aeruginosa NCTC 10490; assay: Antibacterial activity, agar-dilution MIC, organism No. 16; settings: Pseudomonas aeruginosa, NCTC10490; Organism No. 16, bouillon-agar; read-out: Minimum Inhibitory Concentration
From the text: as §1

[19] = tested on: Streptococcus pyogenes IFO 3340; assay: Antibacterial activity, agar-dilution MIC, organism No. 26; settings: Streptococcus pyogenes, IFO3340; Organism No. 26, bouillon-agar; read-out: Minimum Inhibitory Concentration
From the text: as §1

[20] = tested on: Escherichia coli K12 C600 IAM 1264; assay: Antibacterial activity, agar-dilution MIC, organism No. 6; settings: Escherichia coli, IAM1264; Organism No. 6, bouillon-agar; read-out: Minimum Inhibitory Concentration
From the text: as §1

[21] = tested on: Escherichia coli NIHJ-JC-2; assay: Antibacterial activity, agar-dilution MIC, organism No. 5; settings: Escherichia coli, NIHJJC2; Organism No. 5, bouillon-agar; read-out: Minimum Inhibitory Concentration
From the text: as §1

Salmonella typhi 901 = assay: Antibacterial activity, agar-dilution MIC, organism No. 9; settings: Salmonella enterica, TYPHI, read-out: Minimum Inhibitory Concentration
From the text: as §1

[22] = tested on: Pseudomonas aeruginosa PAO 1; assay: Antibacterial activity, agar-dilution MIC, organism No. 17; settings: Pseudomonas aeruginosa, PAO1; Organism No. 17, bouillon-agar; read-out: Minimum Inhibitory Concentration
From the text: as §1

[23] = tested on: Salmonella typhimurium IID 971; assay: Antibacterial activity, agar-dilution MIC, organism No. 8; settings: Salmonella enterica; Organism No. 8, bouillon-agar; read-out: Minimum Inhibitory Concentration
From the text: as §1

[24] = tested on: Salmonella shottmuelleri 8006; assay: Antibacterial activity, agar-dilution MIC, organism No. 11; settings: Salmonella, 8006; Organism No. 11, bouillon-agar; read-out: Minimum Inhibitory Concentration
From the text: as §1

[25] = tested on: Streptococcus pyogenes Cook; assay: Antibacterial activity, agar-dilution MIC, organism No. 4; settings: Streptococcus pyogenes; Organism No. 4, bouillon-agar; read-out: Minimum Inhibitory Concentration
From the text: as §1

Compound: [C-]#[N+]C12CC3(/C=C/C(=O)N[C@@H](CCC(=O)OC)C(=O)OC)OC3C1O2 (stereo partly drawn) [Compound No. 26]
- MIC [1]: 12.5 µg/mL (≈ 35.7 µM)
- MIC [2]: > 200 µg/mL
- MIC [3]: 50 µg/mL (≈ 143 µM)
- MIC [4]: 100 µg/mL (≈ 285 µM)
- MIC (Proteus vulgaris OX-19): 25 µg/mL (≈ 71.4 µM)
- MIC (Enterobacter cloacae 963): > 200 µg/mL
- MIC [5]: 100 µg/mL (≈ 285 µM)
- MIC (Proteus vulgaris HX-19): 12.5 µg/mL (≈ 35.7 µM)
- MIC [6]: 1.56 µg/mL
- MIC [7]: 25 µg/mL (≈ 71.4 µM)
- MIC [8]: 50 µg/mL (≈ 143 µM)
- MIC [9]: > 200 µg/mL
- MIC [10]: > 200 µg/mL
- MIC [11]: > 200 µg/mL
- MIC [12]: 100 µg/mL (≈ 285 µM)
- MIC [13]: 50 µg/mL (≈ 143 µM)
- MIC [14]: 25 µg/mL (≈ 71.4 µM)
- MIC [15]: > 200 µg/mL
- MIC [16]: 100 µg/mL (≈ 285 µM)
- MIC [17]: 100 µg/mL (≈ 285 µM)
- MIC [18]: > 200 µg/mL
- MIC [19]: 50 µg/mL (≈ 143 µM)
- MIC [20]: 100 µg/mL (≈ 285 µM)
- MIC [21]: 100 µg/mL (≈ 285 µM)
- MIC (Salmonella typhi 901): 50 µg/mL (≈ 143 µM)
- MIC [22]: > 200 µg/mL
- MIC [23]: 100 µg/mL (≈ 285 µM)
- MIC [24]: 50 µg/mL (≈ 143 µM)
- MIC [25]: 50 µg/mL (≈ 143 µM)

Compound: [C-]#[N+]C12CC3(/C=C/C(=O)Nc4ccc(F)cc4)OC3C1O2 (stereo not drawn) [compound 43]
- MIC [1]: 0.2 µg/mL (≈ 0.699 µM)
- MIC [2]: 12.5 µg/mL (≈ 43.7 µM)
- MIC [3]: 3.13 µg/mL (≈ 10.9 µM)
- MIC [4]: 1.56 µg/mL (≈ 5.45 µM)
- MIC (Proteus vulgaris OX-19): 0.39 µg/mL (≈ 1.36 µM)
- MIC (Enterobacter cloacae 963): 12.5 µg/mL (≈ 43.7 µM)
- MIC [5]: 3.13 µg/mL (≈ 10.9 µM)
- MIC (Proteus vulgaris HX-19): 0.39 µg/mL (≈ 1.36 µM)
- MIC [6]: < 0.2 µg/mL
- MIC [7]: 1.56 µg/mL (≈ 5.45 µM)
- MIC [8]: 0.78 µg/mL (≈ 2.72 µM)
- MIC [9]: > 200 µg/mL
- MIC [10]: > 200 µg/mL
- MIC [11]: 1.56 µg/mL (≈ 5.45 µM)
- MIC [12]: 0.39 µg/mL (≈ 1.36 µM)
- MIC [13]: 0.78 µg/mL (≈ 2.72 µM)
- MIC [14]: 0.78 µg/mL (≈ 2.72 µM)
- MIC [15]: 12.5 µg/mL (≈ 43.7 µM)
- MIC [16]: 0.39 µg/mL (≈ 1.36 µM)
- MIC [17]: 6.25 µg/mL (≈ 21.8 µM)
- MIC [18]: > 200 µg/mL
- MIC [19]: 3.13 µg/mL (≈ 10.9 µM)
- MIC [20]: 25 µg/mL (≈ 87.3 µM)
- MIC [21]: 6.25 µg/mL (≈ 21.8 µM)
- MIC (Salmonella typhi 901): 1.56 µg/mL (≈ 5.45 µM)
- MIC [22]: > 200 µg/mL
- MIC [23]: 6.25 µg/mL (≈ 21.8 µM)
- MIC [24]: 0.78 µg/mL (≈ 2.72 µM)
- MIC [25]: 25 µg/mL (≈ 87.3 µM)

Compound: [C-]#[N+]C12CC3(/C=C/C(=O)N(C(=O)NC4CCCCC4)C4CCCCC4)OC3C1O2 (stereo not drawn) [Compound No. 25]
- MIC [1]: < 0.05 µg/mL
- MIC [2]: 6.25 µg/mL (≈ 15.6 µM)
- MIC [3]: 100 µg/mL (≈ 250 µM)
- MIC [4]: 6.25 µg/mL (≈ 15.6 µM)
- MIC (Proteus vulgaris OX-19): 25 µg/mL (≈ 62.6 µM)
- MIC (Enterobacter cloacae 963): 50 µg/mL (≈ 125 µM)
- MIC [5]: 0.78 µg/mL (≈ 1.95 µM)
- MIC (Proteus vulgaris HX-19): 0.1 µg/mL (≈ 0.25 µM)
- MIC [6]: 1.56 µg/mL
- MIC [7]: 0.78 µg/mL (≈ 1.95 µM)
- MIC [8]: 0.1 µg/mL (≈ 0.25 µM)
- MIC [9]: > 100 µg/mL
- MIC [10]: > 100 µg/mL
- MIC [11]: > 200 µg/mL
- MIC [12]: > 100 µg/mL
- MIC [13]: 100 µg/mL (≈ 250 µM)
- MIC [14]: 0.1 µg/mL (≈ 0.25 µM)
- MIC [15]: > 200 µg/mL
- MIC [16]: 3.13 µg/mL (≈ 7.83 µM)
- MIC [17]: 0.39 µg/mL (≈ 0.976 µM)
- MIC [18]: > 100 µg/mL
- MIC [19]: 6.25 µg/mL (≈ 15.6 µM)
- MIC [20]: 6.25 µg/mL (≈ 15.6 µM)
- MIC [21]: 12.5 µg/mL (≈ 31.3 µM)
- MIC (Salmonella typhi 901): 100 µg/mL (≈ 250 µM)
- MIC [22]: > 100 µg/mL
- MIC [23]: 100 µg/mL (≈ 250 µM)
- MIC [24]: 0.1 µg/mL (≈ 0.25 µM)
- MIC [25]: 1.56 µg/mL (≈ 3.9 µM)
